This note sets out measurements from paper PMC11217349, “Development of Nurr1 agonists from amodiaquine by scaffold hopping and fragment growing” (Communications Chemistry, 2024).

Series [1] has as its target T1, human Nurr1 (hinge region and ligand binding domain) (Homo sapiens, UniProt P43354).
T1 construct: expressed in transfected cells; host or cells: HEK293T
As to the kind of experiment: Gal4-Nurr1 hybrid reporter gene assay. Type of series: cell-based. The note with it: for max. activation: maximum effect vs. 0.1% DMSO control; for highest non-toxic concentration: Gal4-Nurr1 hybrid reporter gene assay. The procedure: Nurr1 modulation was determined in a Gal4 hybrid reporter gene assay in HEK293T cells (German Collection of Microorganisms and Cell Culture GmbH, DSMZ) using pFR-Luc (Stratagene, La Jolla, CA, USA; reporter), pRL-SV40 (Promega, Madison, WI, USA; internal control) and pFA-CMV-hNurr1-LBD[14], coding for the hinge region and ligand binding domain of the canonical isoform of human Nurr1. […] After 24 h, the medium was changed to Opti-MEM without supplements, and cells were transiently transfected using Lipofectamine LTX reagent (Invitrogen, Carlsbad, CA, USA) according to the manufacturer’s protocol. Five hours after transfection, cells were incubated with the test compounds in Opti-MEM supplemented with penicillin (100 U/mL), streptomycin (100 μg/mL), and 0.1% DMSO for 16 h before luciferase activity was measured using the Dual-Glo Luciferase Assay System (Promega) according to the manufacturer’s protocol on a Tecan Spark luminometer (Tecan Deutschland GmbH, Crailsheim, Germany). Firefly luminescence was divided by Renilla luminescence and multiplied by 1000 resulting in relative light units (RLU) to normalize for transfection efficiency and cell growth. Fold activation was obtained by dividing the mean RLU of the test compound by the mean RLU of the untreated control. All samples were tested in at least three biologically independent experiments in duplicates. For dose-response curve fitting and calculation of EC50 values, the equation “[Agonist] vs. response -- Variable slope (four parameters)” was used in GraphPad Prism (version 7.00, GraphPad Software, La Jolla, CA, USA). Selectivity profiling was performed with identical procedures using pFA-CMV-Nur77-LBD[14], pFA-CMV-NOR-1-LBD[14], pFA-CMV-THRα-LBD[51], pFA-CMV-RARα-LBD[52], pFA-CMV-PPARα-LBD[53], pFA-CMV-PPARγ-LBD[53], pFA-CMV-PPARδ-LBD[53], pFA-CMV-LXRα-LBD[54], pFA-CMV-FXR-LBD[55] and pFA-CMV-hRXRα-LBD[56].
Background: Reporter assays use an easily measured gene product as a stand-in for the process of interest.

The next series has as its target T2, Nurr1 LBD (Homo sapiens, UniProt P43354).
T2 construct: Nurr1 LBD protein (5–30 µM, expressed as described previously[21]); made in house
As to the kind of experiment: Isothermal titration calorimetry (ITC). Type of series: binding. Conditions: 25 °C. The procedure:
ITC experiments were conducted on an Affinity ITC instrument (TA Instruments, New Castle, DE) at 25 °C with a stirring rate of 75 rpm. Nurr1 LBD protein (5–30 µM, expressed as described previously[21]) in buffer (20 mM Tris pH 7.5, 100 mM NaCl, 5% glycerol) containing 1–4% DMSO was titrated with the test compounds (30–150 μM in the same buffer containing 1-4% DMSO) in 26 injections (1 × 1 µL, 25 × 3-4 μL) with an injection interval of 120-150 s. As control experiments, the test compounds were titrated to the buffer, and the buffer was titrated to the Nurr1 LBD protein under otherwise identical conditions. Results were analyzed using NanoAnalyze software (version 3.11.0, TA Instruments, New Castle, DE) with independent binding models.
(In general: Isothermal titration calorimetry measures the heat released or taken up as one component is titrated into another.)

A short description of a further series: Microsomal stability. Type of series: in vitro ADME, rat. The note with it: incubation of 36 with rat liver microsomes, listed as 36-NH2. On the procedure: To determine microsomal stability, test compounds (10 μM) were incubated in 100 mM potassium phosphate buffer at pH 7.4 (total volume of 100 µL) containing 0.5 mg/mL male rat liver microsomes (Sprague-Dawley, no. M9066, Merck KGaA, Darmstadt) and 1 mM NADPH for 0, 15, 30, or 60 min. At the end of the incubation time, microsomal activity was terminated by the addition of 500 µL MeCN and subsequent centrifugation at 1700 g for 5 min. A reaction mixture containing heat-inactivated microsomes (95 °C, 10 min) was prepared as a control for each compound. 5 µL supernatant of each sample was analyzed and the remaining concentrations of the respective test compounds at each time point were determined by LC-MS/MS on an API-3200-QTrap (Sciex) with an Agilent Technologies 1100 series setup including a binary pump (G1311A), a degasser (G1322A), and a Shimadzu SIL 20 A HT autosampler under the control of Analyst 1.6 (Sciex). A XBridge BEH C18 (3.5 µm, 150 mm×3 mm, Waters, protected with a 0.5 µm frit) stationary phase was used in combination with a gradient method starting with 0.1% formic acid in water (A) and MeCN (B) as mobile phase (A:B = 80:20) for 6 min going to A: B = 50:50 after 8 min. 5 µL of supernatant diluted in mobile phase starting conditions was loaded onto the column, separated at a flow rate of 400 µL/min, and detected and quantified per Area of MRM (multiple reaction monitoring) with the following transitions: m/z 381.797/145.000 (34); m/z 395.125/158.200 (36); m/z 409.822/131.000 (41); m/z 407.838/171.100 (42).

[2] abbreviates: Gal4-Nurr1 hybrid reporter, HEK293T, mean ± SD, n ≥ 3, read-out: EC50(Nurr1).
[3] abbreviates: Gal4-Nurr1 hybrid reporter, HEK293T, mean ± SD, n ≥ 3.
The mark [4] stands for this setting: Table 2, Nurr1 agonism, read-out: pEC50 (converted).

“And” between values parts separate entries of the source, which are not always exact repeats. Equal values may be shown once. Read-outs that look alike come from different tables or passages of the source.

T1 sequence (P43354 360-595 limits assumed): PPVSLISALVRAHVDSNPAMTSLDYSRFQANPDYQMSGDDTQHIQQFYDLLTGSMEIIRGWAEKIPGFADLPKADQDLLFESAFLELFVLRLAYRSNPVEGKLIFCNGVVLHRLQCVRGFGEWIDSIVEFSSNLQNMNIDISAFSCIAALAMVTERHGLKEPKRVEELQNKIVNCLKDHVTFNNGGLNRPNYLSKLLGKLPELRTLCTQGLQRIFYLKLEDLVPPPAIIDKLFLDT
T2 sequence (P43354 360-595 limits assumed): as above

Consider `Cc1ccc(-c2ccc(C(=O)Nc3c(C)nc4c(Cl)cccn34)o2)cc1` [Compound 32], for which the EC50 in series [1] (setting [2]) is 130 ± 20 nM. The molecule also returned a max. activation in series [1] (mean ± SD, n ≥ 3) of 2.0 ± 0.2 fold.
As to `Cc1nc2c(Cl)cccn2c1NC(=O)c1ccc(-c2ccccc2)o1` [Compound 27], in series [1] (setting [2]), the EC50 was found to be 4000 ± 1000 nM. The molecule further yielded a max. activation in series [1] (mean ± SD, n ≥ 3) of 2.1 ± 0.1 fold.
Consider `CC(C)c1nc2c(Cl)cccn2c1N` [Compound 14], for which the max. activation in series [1] (mean ± SD, n ≥ 3) is < 1.2-fold act.
On to `Cc1nc2c(Cl)cccn2c1NC(=O)c1ccc(-c2ccc(OC(F)(F)F)cc2)o1` [Compound 33], for which, in series [1] (setting [2]), the EC50 turned out to be 800 ± 200 nM. Besides, the max. activation in series [1] (mean ± SD, n ≥ 3) is given as 2.0 ± 0.1 fold.
For the molecule `Nc1c(-c2ccco2)nc2c(Cl)cccn12` [Compound 16], the max. activation in series [1] (mean ± SD, n ≥ 3) is < 1.2-fold act.
For the molecule `Nc1c(-c2ccccc2Cl)nc2c(Cl)cccn12` [Compound 19], the “EC50(Nurr1)” value in series [1] (setting [3]) is “inactive (100 µM)”.
`Cc1nc2cc(Cl)ccn2c1N` [Compound 9]: in series [1] (setting [3]), the “EC50(Nurr1)” value is “inactive (100 µM)”. Also, the “Kd (Nurr1 LBD)” value on Nurr1 LBD is recorded as “weak binding”.
On to `Cc1nc2c(Cl)cccn2c1N` [Compound 8, 8-Chloro-2-methylimidazo[1,2-a]pyridine-3-amine], for which the EC50 in series [1] (setting [2]) was determined as 7000 ± 1000 nM. In addition, in series [1] (mean ± SD, n ≥ 3), the max. activation worked out at 2.0 ± 0.1 fold. The Kd (in general, the concentration at which binding is half-saturated) at Nurr1 LBD was 2700 nM.
Consider `Cc1nc2c(Cl)cccn2c1NC(=O)c1ccc(-c2ccc(C(F)(F)F)cc2)o1` [Compound 31], for which, in series [1] (setting [2]), the EC50 stood at 1100 ± 300 nM. This molecule showed a max. activation in series [1] (mean ± SD, n ≥ 3) of 1.8 ± 0.1 fold.
For the molecule `Cc1[nH]c2c(Cl)cccc2c1N` [Compound 6, 7-chloro-2-methyl-1H-indol-3-amine], the “EC50(Nurr1)” value in series [1] (setting [3]) is “unstable”.
With `Nc1c(-c2ccc(Cl)c(Cl)c2)nc2c(Cl)cccn12` [Compound 24, 8-Chloro-2-(3,4-dichlorophenyl)imidazo[1,2-a]pyridine-3-amine], the EC50 in series [1] (setting [4]) was 398 nM. Further, the max. activation in series [1] (mean ± SD, n ≥ 3) is 1.8 fold and 1.8±0.1 fold. This molecule also registered a Kd at Nurr1 LBD of 700 nM.
Regarding `Cc1cc(N)c2cccc(Cl)c2n1` [Compound 3, 8-chloro-2-methylquinolin-4-amine, reference compound], the max. activation in series [1] (mean ± SD, n ≥ 3) is 1.7 ± 0.1 fold.
Consider `Cc1nc2c(Cl)cccn2c1NC(=O)c1ccc(-c2ccc(N)cc2)o1` [Compound 38], for which, in series [1] (mean ± SD, n ≥ 3), the max. activation is on record as <1.2-fold activation. Also, the “AUC x10^5 (LC-MS peak area of 36 and its demethylated metabolites)” value in “Microsomal stability” (time 0 min) was 0.0604 x10^5 and 0.0553 x10^5 and 0.0561 x10^5 and 0.0573 x10^5; in “Microsomal stability” (time 15 min) it was 1.99 x10^5 and 2.08 x10^5 and 1.81 x10^5 and 1.95 x10^5; in “Microsomal stability” (time 60 min) it was 4.34 x10^5 and 4.54 x10^5 and 4 x10^5 and 5.57 x10^5.
As for `Cc1nc2c(Cl)cccn2c1NC(=O)c1ccc(-c2ccc(N3CCOCC3)cc2)o1` [Compound 39], the highest non-toxic concentration result in series [1] (HEK293T) is “inactive (10 µM^c)”. Further, in series [1] (setting [3]), the “EC50(Nurr1)” value was “inactive (10 µM^c)”.
`CNc1ccc(-c2ccc(C(=O)Nc3c(C)nc4c(Cl)cccn34)o2)cc1` [Compound 35]: the EC50 in series [1] (setting [2]) is 300 ± 20 nM. The max. activation in series [1] (mean ± SD, n ≥ 3) was determined as 1.8 ± 0.1 fold.
`Nc1c(-c2cccc(Cl)c2)nc2c(Cl)cccn12` [Compound 18]: the EC50 in series [1] (setting [2]) turned out to be 9000 ± 3000 nM. The max. activation in series [1] (mean ± SD, n ≥ 3) came to 1.7 ± 0.1 fold.
`CCN1CCN(c2cc(N3CCN(CC)CC3)nc(NCCNc3ccnc4cc(Cl)ccc34)n2)CC1` [Compound 1, reference compound]: the EC50 in series [1] (setting [4]) is 20000 nM.
For the molecule `Nc1cnc2c(Cl)cccn12` [Compound 12, 3-Amino-8-chloroimidazo[1,2-a]pyridine], binding at Nurr1 LBD was characterised by a dissociation constant (Kd) of 5100 nM.
Consider `Nc1c(-c2cccc(C(F)(F)F)c2)nc2c(Cl)cccn12` [Compound 23], for which the max. activation in series [1] (mean ± SD, n ≥ 3) was < 1.2-fold act.
Take `Cc1nc2c(Cl)cccn2c1NC(=O)c1ccc(-c2ccc(Cl)cc2)o1` [Compound 26]: the EC50 in series [1] (setting [2]) was 1600 ± 500 nM. The max. activation in series [1] (mean ± SD, n ≥ 3) is 1.8 ± 0.1 fold. Besides, the Kd on Nurr1 LBD was 700 nM.
Take `Cc1ccc(-c2nc3c(Cl)cccn3c2N)cc1` [Compound 20]: the EC50 in series [1] (setting [2]) was determined as 12000 ± 2000 nM. The same molecule showed a max. activation in series [1] (mean ± SD, n ≥ 3) of 2.0 ± 0.2 fold.
For the molecule `Cc1ccc(-c2nc3c(Cl)cccn3c2N)cc1C` [Compound 25], in series [1] (setting [2]), the EC50 worked out at 14000 ± 2000 nM. This molecule also returned a max. activation in series [1] (mean ± SD, n ≥ 3) of 1.6 ± 0.1 fold.
Take `CN(C)c1ccc(-c2ccc(C(=O)Nc3c(-c4ccc(Cl)c(Cl)c4)nc4c(Cl)cccn34)o2)cc1` [Compound 37, N-(8-Chloro-2-(3,4-dichlorophenyl)imidazo[1,2-a]pyridin-3-yl)-5-(4-(dimethylamino)phenyl)furan-2-carboxamidearboxamide]: the EC50 in series [1] (setting [2]) worked out at 40 ± 10 nM. This molecule had a max. activation in series [1] (mean ± SD, n ≥ 3) of 1.53±0.04 fold. The Kd at Nurr1 LBD was 80 nM.
Take `Cc1nc2c(Cl)cccn2c1NC(=O)c1ccc(-c2ccccc2)s1` [Compound 28]: in series [1] (setting [2]), the EC50 is 3200 ± 400 nM. This molecule gave a max. activation in series [1] (mean ± SD, n ≥ 3) of 2.1 ± 0.1 fold.
As for `Nc1c(-c2ccc(Cl)cc2)nc2c(Cl)cccn12` [Compound 17], the EC50 in series [1] (setting [2]) was 15000 ± 3000 nM. In series [1] (mean ± SD, n ≥ 3), this molecule registered a max. activation of 1.7 ± 0.2 fold.
For `Cc1nc2cccc(Cl)c2[nH]1` [Compound 7, 4-Chloro-2-methyl-benzimidazole], the “EC50(Nurr1)” value in series [1] (setting [3]) was “inactive (100 µM)”.
Regarding `Cc1cccc(-c2nc3c(Cl)cccn3c2N)c1` [Compound 21], in series [1] (mean ± SD, n ≥ 3), the max. activation is reported as < 1.2-fold act.
`O=C(Nc1ccnc2cc(Cl)ccc12)c1ccc(-c2ccc(Cl)cc2)o1` [Compound 4, reference compound]: the EC50 in series [1] (setting [4]) is 15800 nM.
With `Cc1nc2c(Cl)cccn2c1NC(=O)c1ccc(-c2ccccc2)cc1` [Compound 30], in series [1] (HEK293T), the highest non-toxic concentration result was “inactive (10 µM^b)”. Also, in series [1] (setting [3]), the “EC50(Nurr1)” value is “inactive (10 µM^b)”.
For `Cc1nc2c(Cl)cccn2c1NC(=O)c1ccc(-c2ccc(N3CCN(C)CC3)cc2)o1` [Compound 40], in series [1] (HEK293T), the highest non-toxic concentration result is “inactive (10 µM^d)”. Besides, in series [1] (setting [3]), the “EC50(Nurr1)” value is “inactive (10 µM^d)”.
Turning to `Nc1c(-c2ccc(C(F)(F)F)cc2)nc2c(Cl)cccn12` [Compound 22], the max. activation in series [1] (mean ± SD, n ≥ 3) is on record as < 1.2-fold act.
Consider `Nc1c(-c2ccccc2)nc2c(Cl)cccn12` [Compound 15], for which the EC50 in series [1] (setting [2]) was found to be 4000 ± 2000 nM. The same molecule showed a max. activation in series [1] (mean ± SD, n ≥ 3) of 1.4 ± 0.1 fold.
